One experiment addresses ADC-7 (Acinetobacter baumannii, UniProt Q6DRA1). Description: Steady-state inhibitor kinetics. The class given is biochemical. Particulars: for lower Ki app values compared to those of avibactam and relebactam: ADC-7.
The target of the next experiment is PDC-3 (Pseudomonas aeruginosa, UniProt P24735, T105A). The experiment is classed as biochemical.
Another experiment concerns the target OXA-23 (Acinetobacter baumannii, UniProt Q9L4P2). Put plainly: Steady-state inhibitor kinetics. The experiment is classed as biochemical, A. baumannii.
Another experiment addresses OXA-24/40 (Acinetobacter baumannii, UniProt Q8RLA6). Put plainly: biochemical. Further details: species or system A. baumannii.
For experiment [1], the system named is KPC-2 (donor) and TEM-1 (recipient). Put plainly: Acyl-transfer ESI-MS, KPC-2 donor to TEM-1 recipient. Conditions: equimolar KPC-2:DBO preincubated 1 min, then equimolar TEM-1. The class given is biochemical.
Experiment [2] relates to Enterobacteriaceae that expressed blaOXA-48 or blaOXA-48 mutants. The experiment is classed as cell-based. Conditions: for MIC: Escherichia coli, E. coli Jefferson 17,75 OXA-48, agent alone.
Another experiment deals with A. baumannii SL04. Description: MIC against clinical isolate A. baumannii SL04. The class given is cell-based.
For experiment [3], the target named is T1, KPC-2 (Klebsiella pneumoniae, UniProt Q9F663). Put plainly: biochemical.
Experiment [4] concerns TEM-1 (donor) and CTX-M-15 (recipient). Particulars: cited from earlier work.
The test system of experiment [5] is E. coli DH10B expressing a single β-lactamase. The experiment is classed as cell-based. Particulars: Escherichia coli, agent alone.
Another experiment has as its system A. baumannii NCTC 13303. Description: MIC against A. baumannii NCTC 13303. The experiment is classed as cell-based.
The test system of another experiment is A. baumannii SL46. Put plainly: MIC against A. baumannii SL46. The experiment is classed as cell-based. Particulars: Acinetobacter baumannii.
The test system of experiment [6] is Escherichia coli DH10B (control). Description: MIC, broth microdilution, Escherichia coli DH10B. The class given is cell-based.
Experiment [7] addresses T1, KPC-2. Conditions: at 15 min; cited from earlier work.
In experiment [8] the test system is E. coli DH10B with pBR322-catI-blaKPC-2. Description: MIC, broth microdilution, isogenic E. coli DH10B with pBR322-catI-blaKPC-2. The experiment is classed as cell-based. Conditions: Escherichia coli, β-lactam alone; E. coli DH10B pBR322-catI-blaKPC-2. A general note: Broth dilution looks for growth in wells or tubes with falling amounts of substance.
The test system of experiment [9] is A. baumannii ΔblaADC with pWH1266 blaOXA-23. Put plainly: MIC, broth microdilution, isogenic A. baumannii ΔblaADC with pWH1266 blaOXA-23. The class given is cell-based. Conditions: Acinetobacter baumannii, β-lactam alone; A. baumannii ΔblaADC pWH1266 blaOXA-23.
In experiment [10] the test system is A. baumannii ΔblaADC with pWH1266 blaOXA-24/40. The experiment is classed as cell-based. Particulars: Acinetobacter baumannii, β-lactam alone; A. baumannii ΔblaADC pWH1266 blaOXA-24.
The next experiment concerns A. baumannii NCTC 13301. Description: MIC against A. baumannii NCTC 13301. The experiment is classed as cell-based.
The next experiment has as its system A. baumannii AADC. Description: MIC, broth microdilution, A. baumannii ΔblaADC parent strain. Conditions: Acinetobacter baumannii. The experiment is classed as cell-based.
For the next experiment, the target named is CMY-2. Particulars: cited from earlier work.
Experiment [11] concerns A. baumannii strains (NCTC 13301, NCTC 13303, SL46). Put plainly: Murine peritonitis model, summary over the three A. baumannii strains. The class given is in vivo. Conditions: supra-therapeutic doses, 6.25 mg/kg administered as two doses.
[12] abbreviates: E. coli DH10B pBC SIC (−) KPC-2.
[13] abbreviates: E. coli DHIOB pBC SIC (−) PDC-3.
The mark [14] stands for this setting: Acinetobacter baumannii, NCTC13303.
The mark [15] stands for this setting: Acinetobacter baumannii, NCTC13301.

What is called Ki is the equilibrium dissociation constant of an inhibitor or competing ligand from its target. As usually defined, the MIC is the smallest concentration in the dilution series that meets the test's criterion for growth inhibition. As usually defined, the Kd is the free concentration of one partner at which half of the binding sites on the other are occupied at equilibrium, for simple one-to-one binding. The low end stands for a tighter complex, the high end for a looser complex.

Converted amounts (≈) assume the structure as drawn. Where two headings read alike, the source gives them in different places. Where only a bound is given, the exact number is not on record here.

Consider `O=C(NNC(=O)[C@@H]1CC[C@@H]2CN1C(=O)N2OS(=O)(=O)O)[C@@H]1CCNC1` [Compound 1, (2S,5R)-6-Sulfooxy-7-oxo-2-[((3R)-pyrrolidine-3-carbonyl)hydrazinocarbonyl]-1,6-diazabicyclo[3.2.1]octane], for which the “lower Ki app values compared to those of avibactam and relebactam” value on ADC-7 is reported as 3–8 fold; at PDC-3, 18–25 fold. Also, the Ki on OXA-23 and at OXA-24/40 was above 100 µM throughout. Further, in experiment [1], the “time required for transfer from KPC-2 to TEM-1” value is 5 min. This compound gave an MIC in [2] above 16 µg/mL.
Regarding `O=C(NNC(=O)[C@@H]1CC[C@@H]2CN1C(=O)N2OS(=O)(=O)O)[C@@H]1CCCNC1` [Compound 2, (2S,5R)-6-Sulfooxy-7-oxo-2-[((3R)-piperidine-3-carbonyl)hydrazinocarbonyl]-1,6-diazabicyclo[3.2.1]octane], the results for the “lower Ki app values compared to those of avibactam and relebactam” value at ADC-7 and on PDC-3 were 3–8 fold and 18–25 fold, respectively. Also, the Ki on OXA-23 and on OXA-24/40 was above 100 µM throughout. Moreover, the “time required for transfer from KPC-2 to TEM-1” value in [1] worked out at 5 min. The MIC in [2] is above 16 µg/mL; in the experiment on A. baumannii SL04 (Acinetobacter baumannii, SL04), at least 512 µg/mL.
As to `N#C[C@@H]1CC[C@@H]2CN1C(=O)N2OS(=O)(=O)[O-].[Na+]` [Compound 3, (2S,5R)-1,6-Diazabicyclo[3.2.1]octane-2-carbonitrile-7-oxo-6-(sulfooxy)-monosodium Salt], the Kd is 0.0019 ± 0.0002 µM on KPC-2 [3], 0.053 ± 0.007 µM on ADC-7, 0.029 ± 0.004 µM on OXA-23 and 0.042 ± 0.006 µM at OXA-24/40. The Ki on KPC-2 [3] was found to be 0.32 ± 0.03 µM; at ADC-7, 8 ± 0.8 µM; on OXA-23 it was 8 ± 1 µM; at OXA-24/40, 5 ± 0.5 µM. For the same compound, the “time for transfer from KPC-2 to TEM-1” value in [1] is reported as at most 15 s.
For the compound `NC(=O)[C@@H]1CC[C@@H]2CN1C(=O)N2OS(=O)(=O)O` [avibactam], the “time of maximum transfer from TEM-1 to CTX-M-15” value in experiment [4] is recorded as 30 min.
With `CO/N=C(\C(=O)N[C@@H]1C(=O)N2C(C(=O)[O-])=C(C[N+]3(C)CCCC3)CS[C@H]12)c1csc(N)n1` [cefepime], the MIC in experiment [5] (setting [12]) was 0.5 µg/mL (≈ 1.04 µM); in experiment [5] (E. coli DHIOB pBC SIC (−) OXA-48), below 0.12 µg/mL; in [5] (setting [13]), below 0.12 µg/mL; against A. baumannii NCTC 13303 (setting [14]) it was 64 µg/mL (≈ 133 µM); in the experiment with A. baumannii SL46 it was above 512 µg/mL; in [6], below 0.12 µg/mL.
Consider `O=C(O)[C@H]1/C(=C/CO)O[C@@H]2CC(=O)N21` [clavulanic acid], for which the “turnover number (tn)” value on KPC-2 [7] is reported as 2,500.
As to `C[C@@H](O)[C@H]1C(=O)N2C(C(=O)O)=C(S[C@@H]3CN[C@H](C(=O)N(C)C)C3)[C@H](C)[C@H]12` [meropenem], the MIC was at least 8 µg/mL in experiment [8]; at least 8 µg/mL in experiment [9]; at least 8 µg/mL in experiment [10]; below 0.12 µg/mL in [5] (setting [12]); below 0.12 µg/mL in [5] (setting [13]); 32 µg/mL (≈ 83.4 µM) with A. baumannii NCTC 13301 (setting [15]). For the same compound, the results for the MIC (in the experiment on A. baumannii NCTC 13303 (setting [14]); in experiment [6]; in the experiment with A. baumannii AADC) were 256 µg/mL (≈ 668 µM), below 0.12 µg/mL and below 0.12 µg/mL, respectively.
As for `O.O=C(NC1CCNCC1)[C@@H]1CC[C@@H]2CN1C(=O)N2OS(=O)(=O)O` [relebactam], the Ki on OXA-23 and on OXA-24/40 was above 100 µM in each case. Besides, the “restoration of susceptibility to cefepime and meropenem” value in experiment [2] (clinical isolates of Enterobacteriaceae expressing blaOXA-48 or mutants) is “less effective”.
In the case of `C[C@]1(Cn2ccnn2)[C@H](C(=O)O)N2C(=O)C[C@H]2S1(=O)=O` [tazobactam], the Ki at CMY-2 is 40 µM.
Regarding `CN(C)c1cc(NC(=O)CNC(C)(C)C)c(O)c2c1C[C@H]1C[C@H]3[C@H](N(C)C)C(O)=C(C(N)=O)C(=O)[C@@]3(O)C(O)=C1C2=O` [tigecycline], the MIC against A. baumannii NCTC 13301 (setting [15]) and against A. baumannii NCTC 13303 (setting [14]) was 1 µg/mL (≈ 1.71 µM) in each case. Further, the “protection of infected mice” value in experiment [11] is recorded as “failed to protect infected mice”.
For colistin, the MIC turned out to be 1 µg/mL with A. baumannii NCTC 13301 (A. baumannii NCTC 13301, 3 at a fixed 8 μg/mL, cefepime-2 at 1:1 ratio); 0.5 µg/mL in the experiment with A. baumannii NCTC 13303 (A. baumannii NCTC 13303, 3 at a fixed 8 μg/mL, cefepime-2 at 1:1 ratio); 2 µg/mL in the experiment with A. baumannii SL04 (A. baumannii SL04 carrying blaOXA-23 and blaOXA-51).

The values are drawn from publication PMC6131718 (Journal of medicinal chemistry, 2018).
